Laboratory results from article PMC8583781, “Identification and Functional Analysis of a Pseudo-Cysteine Protease from the Midgut Transcriptome of Sphenophorus levis” (International Journal of Molecular Sciences, 2021).

Target: T1, Sl-CathL-mutSC
T1 construct: ORF of Sl-CathL-CS (GenBank JZ136744.1) without signal peptide, C-terminal 6x His tag, expressed in P. pastoris KM71H
Experiment: fluorogenic protease assay (AMC release), Ki by Morrison equation
Type: biochemical, Sphenophorus levis

For `CC(C)C[C@H](NC(=O)[C@H]1O[C@@H]1C(=O)O)C(=O)NCCCCN=C(N)N` [E-64], the Ki was 38.5 ± 1.2 µM.
